Here are results for 14 compounds from patent publication US7935687B2, “Methods for treating spinal muscular atrophy using tetracycline compounds” (Paratek Pharmaceuticals, Inc., priority 2007, dated 2011).

The test system of one assay is S. aureus (SA RN450). Nature of the assay: Antibacterial MIC, gram positive. The assay is classed as cell-based. The note with it: CLSI methodology, 35° C., 18-24 hours; for MIC: Staphylococcus aureus.
Another assay has as its system E. coli (EC D1-209). Nature of the assay: Antibacterial MIC, gram negative. The assay is classed as cell-based. The note with it: CLSI methodology, 35° C., 18-24 hours; for MIC: Escherichia coli.
The test system of another assay is SMN2 mRNA. Nature of the assay: In vitro cell-free splicing assay for inclusion of exon 7. The conditions noted are these: HeLa cell nuclear extract, 30° C., 3 hours. The assay is classed as biochemical. How it is done: The following example illustrates how tetracycline compound of the invention are active in an in vitro cell-free assay for the inclusion of exon 7 in […] mRNA. SMN1 and SMN2 pre-mRNA were prepared by in vitro transcription using T7 RNA polymerase of minigene templates that include exon 6, a truncated portion of intron 6, exon 7, intron 7 and a portion of exon 8 in the presence of ^32P-UTP. Labeled RNA was purified on a denaturing polyacrylamide gel followed by phenol extraction and ethanol precipitation of the RNA.
In vitro cell-free splicing of SMN1 and SMN2 transcripts was carried out in a 10 μl reaction volume at 30° C. for 3 hours. The reactions contained 10 fmol of labeled pre-mRNA, 30% (3 VI) HeLa cell nuclear extract (in 20 mM HEPES, pH 7.4, 20% (v/v) glycerol, 0.1M KC1, 0.2 mM EDTA), 1.3% (w/v) polyvinyl alcohol, 1.56 mM MgCl2, 32 mM HEPES, pH 7.4, 0.5 mM ATP, 20 mM creatine phosphate and either 2 μl of test compound (in 20 mM HEPES, pH 7.4, 0.1M KC1, 0.2 mM EDTA) or buffer alone. Following incubation, 200 μl of a solution containing 0.3M NaAc and 0.2% SDS was added to the reaction. Proteins were removed by extraction with an equal volume of phenol and RNA was precipitated with 2.5 volumes of ethanol. RNA was resuspended in formamide sample buffer and separated on a 9% urea-denaturing polyacrylamide gel. Quantitation of splicing was based on phosphorimage analysis (Fujix BAS2000 or Fujifilm FLA-5100). In this assay, percentage exon 7 inclusion averages 12% for the unmutated SMN1 mRNA and 4% for the SMN2 mRNA.
The in vitro activities for exon 7 splicing are expressed as the Emax (the maximum percentage exon 7 inclusion observed) and Cmax (the lowest compound concentration at which the maximum inclusion occurs in μM). For Emax, percentage inclusion values of less than 10% are indicated by “*”, values of 10-20% are indicated by “**”, and values greater than 20% are indicated by “***”. For Cmax data, concentrations of greater than 40 μM are indicated by “*”, concentrations between 40 and 10 μM are represented by “**” and concentrations of less than 10 μM are represented by “***”.

For `CC(C)N1CCN(CC(=O)c2ccc(O)c3c2CC2CC4C(N(C)C)C(O)=C(C(N)=O)C(=O)C4(O)C(O)=C2C3=O)CC1` (centres unmarked) [BX], the “MIC Gram Positive (SA RN450)” value against S. aureus (SA RN450) is “*** (Good antibacterial activity (e.g., less than about 4 μg/mL))”. Further, the “MIC Gram Negative (EC D1-209)” value in the assay on E. coli (EC D1-209) is “* (weak antibacterial activity (greater than about 8 μg/mL))”. Besides, in the assay with SMN2 mRNA, the “Cmax (lowest compound concentration at which the maximum exon 7 inclusion occurs)” value (shortened to “Cmax”) is “* (concentrations of greater than 40 μM)” and the “Emax (maximum percentage exon 7 inclusion observed)” value was “* (percentage inclusion values of less than 10%)”.

As for `CN(C)C1C(O)=C(C(N)=O)C(=O)C2(O)C(O)=C3C(=O)c4c(O)ccc(C(=O)CNc5cccnc5)c4CC3CC12` (centres unmarked) [CB], in the assay on S. aureus (SA RN450), the “MIC Gram Positive (SA RN450)” value was “* (weak antibacterial activity (greater than about 8 μg/mL))”. Besides, the “MIC Gram Negative (EC D1-209)” value with E. coli (EC D1-209) is reported as “* (weak antibacterial activity (greater than about 8 μg/mL))”. In addition, in the assay with SMN2 mRNA, the “Cmax” value is “** (concentrations between 40 and 10 μM)”; the “Emax (maximum percentage exon 7 inclusion observed)” value is listed as “** (values of 10-20%)”.

For `CN(C)C1C(O)=C(C(N)=O)C(=O)C2(O)C(O)=C3C(=O)c4c(O)ccc(C(=O)CNCc5ccco5)c4CC3CC12` (centres unmarked) [CC], the “MIC Gram Positive (SA RN450)” value in the assay on S. aureus (SA RN450) is “** (modest antibacterial activity (between about 4 and 8 μg/mL))”. Besides, the “MIC Gram Negative (EC D1-209)” value in the assay on E. coli (EC D1-209) is “* (weak antibacterial activity (greater than about 8 μg/mL))”. In addition, in the assay with SMN2 mRNA, the “Cmax” value was “*** (concentrations of less than 10 μM)” and the “Emax (maximum percentage exon 7 inclusion observed)” value is given as “** (values of 10-20%)”.

Take `CN(C)C1C(O)=C(C(N)=O)C(=O)C2(O)C(O)=C3C(=O)c4c(O)ccc(C(=O)CNCc5cccn5C)c4CC3CC12` (centres unmarked) [CE]: the “MIC Gram Positive (SA RN450)” value against S. aureus (SA RN450) is on record as “*** (Good antibacterial activity (e.g., less than about 4 μg/mL))”. Further, the “MIC Gram Negative (EC D1-209)” value with E. coli (EC D1-209) is “* (weak antibacterial activity (greater than about 8 μg/mL))”. Further, in the assay with SMN2 mRNA, the “Cmax” value is given as “*** (concentrations of less than 10 μM)” and the “Emax (maximum percentage exon 7 inclusion observed)” value is “** (values of 10-20%)”.

Regarding `CN(C)C1C(O)=C(C(N)=O)C(=O)C2(O)C(O)=C3C(=O)c4c(O)ccc(C(=O)Cc5cncn5C)c4CC3CC12` (centres unmarked) [CG], the “MIC Gram Positive (SA RN450)” value in the assay on S. aureus (SA RN450) is listed as “*** (Good antibacterial activity (e.g., less than about 4 μg/mL))”. For the same compound, the “MIC Gram Negative (EC D1-209)” value with E. coli (EC D1-209) was “* (weak antibacterial activity (greater than about 8 μg/mL))”. In the assay with SMN2 mRNA, the “Cmax” value was “* (concentrations of greater than 40 μM)” and the “Emax (maximum percentage exon 7 inclusion observed)” value was “** (values of 10-20%)”.

For the compound `CC(=O)NCCC(=O)c1ccc(O)c2c1CC1CC3C(N(C)C)C(O)=C(C(N)=O)C(=O)C3(O)C(O)=C1C2=O` (centres unmarked) [CI], in the assay with S. aureus (SA RN450), the “MIC Gram Positive (SA RN450)” value is reported as “*** (Good antibacterial activity (e.g., less than about 4 μg/mL))”. The “MIC Gram Negative (EC D1-209)” value in the assay with E. coli (EC D1-209) is “* (weak antibacterial activity (greater than about 8 μg/mL))”. For the same compound, in the assay on SMN2 mRNA, the “Cmax” value is “* (concentrations of greater than 40 μM)” and the “Emax (maximum percentage exon 7 inclusion observed)” value is given as “** (values of 10-20%)”.

As for `CN(C)C1C(O)=C(C(N)=O)C(=O)C2(O)C(O)=C3C(=O)c4c(O)ccc(-c5cccc(C(=O)NCCO)c5)c4CC3CC12` (centres unmarked) [CK], the “MIC Gram Positive (SA RN450)” value against S. aureus (SA RN450) was “*** (Good antibacterial activity (e.g., less than about 4 μg/mL))”. The “MIC Gram Negative (EC D1-209)” value with E. coli (EC D1-209) was “* (weak antibacterial activity (greater than about 8 μg/mL))”. In the assay on SMN2 mRNA, the “Cmax” value was “** (concentrations between 40 and 10 μM)”; the “Emax (maximum percentage exon 7 inclusion observed)” value was “** (values of 10-20%)”.

`CN(C)CCCCNC(=O)c1cccc(-c2ccc(O)c3c2CC2CC4C(N(C)C)C(O)=C(C(N)=O)C(=O)C4(O)C(O)=C2C3=O)c1` (centres unmarked) [CL]: the “MIC Gram Positive (SA RN450)” value against S. aureus (SA RN450) was “** (modest antibacterial activity (between about 4 and 8 μg/mL))”. The “MIC Gram Negative (EC D1-209)” value in the assay on E. coli (EC D1-209) was “* (weak antibacterial activity (greater than about 8 μg/mL))”. Further, in the assay with SMN2 mRNA, the “Cmax” value is “** (concentrations between 40 and 10 μM)”; the “Emax (maximum percentage exon 7 inclusion observed)” value is given as “*** (values greater than 20%)”.

On to `CN(C)C1C(O)=C(C(N)=O)C(=O)C2(O)C(O)=C3C(=O)c4c(O)ccc(-c5cccc(CCCO)c5)c4CC3CC12` (centres unmarked) [CM], for which the “MIC Gram Positive (SA RN450)” value against S. aureus (SA RN450) is listed as “*** (Good antibacterial activity (e.g., less than about 4 μg/mL))”. In the assay with E. coli (EC D1-209), the “MIC Gram Negative (EC D1-209)” value is recorded as “* (weak antibacterial activity (greater than about 8 μg/mL))”. Besides, in the assay on SMN2 mRNA, the “Cmax” value is listed as “*** (concentrations of less than 10 μM)” and the “Emax (maximum percentage exon 7 inclusion observed)” value is reported as “** (values of 10-20%)”.

On to `COC(=O)C1CCN(Cc2ccc(O)c3c2CC2CC4C(N(C)C)C(O)=C(C(N)=O)C(=O)C4(O)C(O)=C2C3=O)CC1` (centres unmarked) [Compound AK], for which the “MIC Gram Positive (SA RN450)” value with S. aureus (SA RN450) is “*** (Good antibacterial activity (e.g., less than about 4 μg/mL))”. For the same compound, the “MIC Gram Negative (EC D1-209)” value with E. coli (EC D1-209) was “** (modest antibacterial activity (between about 4 and 8 μg/mL))”. Also, in the assay with SMN2 mRNA, the “Cmax” value is “** (concentrations between 40 and 10 μM)”; the “Emax (maximum percentage exon 7 inclusion observed)” value is on record as “* (percentage inclusion values of less than 10%)”.

For the compound `CN(C)CCNC(=O)c1cccc(-c2ccc(O)c3c2CC2CC4C(N(C)C)C(O)=C(C(N)=O)C(=O)C4(O)C(O)=C2C3=O)c1` (centres unmarked) [Compound A], the “MIC Gram Positive (SA RN450)” value in the assay with S. aureus (SA RN450) is “*** (Good antibacterial activity (e.g., less than about 4 μg/mL))”. Also, the “MIC Gram Negative (EC D1-209)” value in the assay on E. coli (EC D1-209) is “* (weak antibacterial activity (greater than about 8 μg/mL))”. Moreover, in the assay with SMN2 mRNA, the “Cmax” value was “** (concentrations between 40 and 10 μM)”; the “Emax (maximum percentage exon 7 inclusion observed)” value is “** (values of 10-20%)”.

Turning to `CN(C)CCCCNCc1ccc(O)c2c1C[C@H]1C[C@H]3[C@H](N(C)C)C(O)=C(C(N)=O)C(=O)[C@@]3(O)C(O)=C1C2=O` [Compound CN, (4S,4aS,5aR,12aS)-4-Dimethylamino-7-[(4-dimethylamino-butylamino)-methyl]-3,10,12,12a-tetrahydroxy-1,11-dioxo-1,4,4a,5,5a,6,11,12a-octahydro-naphthacene-2-carboxylic Acid Amide], in the assay on S. aureus (SA RN450), the minimal inhibitory concentration (MIC) was > 8 µg/mL. The MIC in the assay with E. coli (EC D1-209) was > 8 µg/mL. In the assay with SMN2 mRNA, the “Cmax” value is reported as “*** (concentrations of less than 10 μM)” and the “Emax (maximum percentage exon 7 inclusion observed)” value is on record as “** (values of 10-20%)”.

Turning to `CCN(CC)CCNC(=O)c1cccc(-c2ccc(O)c3c2C[C@H]2C[C@H]4[C@H](N(C)C)C(O)=C(C(N)=O)C(=O)[C@@]4(O)C(O)=C2C3=O)c1` [Compound E, (4S,4aS,5aR,12aS)-7-[3-(2-Diethylamino-ethylcarbamoyl)-phenyl]-4-dimethylamino-3,10,12,12a-tetrahydroxy-1,11-dioxo-1,4,4a,5,5a,6,11,12a-octahydro-naphthacene-2-carboxylic Acid Amide], the MIC against S. aureus (SA RN450) was < 4 µg/mL. Besides, the MIC in the assay with E. coli (EC D1-209) was > 8 µg/mL. In addition, in the assay with SMN2 mRNA, the “Cmax” value is “** (concentrations between 40 and 10 μM)”; the “Emax (maximum percentage exon 7 inclusion observed)” value is reported as “*** (values greater than 20%)”.

For the compound `CCOC(=O)CCNC(=O)c1cccc(-c2ccc(O)c3c2C[C@H]2C[C@H]4[C@H](N(C)C)C(O)=C(C(N)=O)C(=O)[C@@]4(O)C(O)=C2C3=O)c1` [Compound I, 3-[3-((6aS,10S,10aS,11aR)-8-Carbamoyl-10-dimethylamino-4,6,6a,9-tetrahydroxy-5,7-dioxo-5,6a,7,10,10a,11,11a,12-octahydro-naphthacen-1-yl)-benzoylamino]-propionic Acid Ethyl Ester], the MIC against S. aureus (SA RN450) is < 4 µg/mL. Moreover, in the assay on E. coli (EC D1-209), the MIC was > 8 µg/mL. Besides, in the assay on SMN2 mRNA, the “Cmax” value was “* (concentrations of greater than 40 μM)” and the “Emax (maximum percentage exon 7 inclusion observed)” value is recorded as “*** (values greater than 20%)”.
